Where “and” joins values, the source holds several entries; their conditions need not be identical. Equal values may be shown once.
What was measured:
[1] = test system: human glioblastoma cell line, U373; assay: U373 growth in culture for 7 days, Compound 100 with standard cytotoxic drugs; format: cell-based; conditions: Compound 100 2.5 uM, cisplatin 0.1 uM, doxorubicin 0.01 uM, taxol 0.3 nM
Description: Cells were exposed to vehicle alone (control); Compound 100 at 2.5 uM; cisplatin at 0.1 uM; doxorubicin at 0.01 uM; or taxol at 0.3 nM alone or to the combination of Compound 100 plus each of the standard agents at the same concentrations. […] The expected percent inhibition at 7 days is the product of the inhibition by each agent alone.
Cells were exposed to vehicle alone (control); compound 100 at 2.5 μM, cisplatin at 0.1 μM; doxorubicin at 0.01 μM; or taxol at 0.3 nM alone or to the combination of compound 100 plus each of the standard agents at the same concentrations. […] The expected percent inhibition from a combination of drugs is calculated by multiplying the actual percent inhibition by each drug alone and comparing that product to the actual percent inhibition caused by the combination of the two drugs (Valeriote, 1975). The expected percent inhibition at 7 days is the product of the inhibition by each agent alone.

[2] = test system: DAOY medulloblastoma cells; assay: DAOY medulloblastoma s.c. xenografts in SCID mice; format: in vivo; conditions: treatment from day 6, by day 23
Description: DAOY medulloblastoma cells were implanted subcutaneously into the flanks of SCID mice. On day 6, mice were divided into 3 groups, one group receiving Compound 100, one group receiving Compound 102, and one group receiving vehicle alone. The subcutaneous tumor masses were measured on day 6, day 13, day 18, and on day 23 when all animals were sacrificed. […] In this model DAOY cells, when untreated, reached their maximum growth about 2 weeks after implantation with slow regression thereafterwards.

[3] = test system: U87 glioblastoma multiforme cells; assay: U87 s.c. xenografts in SCID mice, Compound 100; format: in vivo; conditions: treatment from day 7, measured to day 26
Description: SCID mice were implanted with 5×10^6 U87 cells subcutaneously. On day 7 treatment was begun on half of the animals. The size of the subcutaneous mass of tumor cells was measured weekly until the animals were sacrificed on day 26.

TCTP = TCTP in U87 xenografts by 2-dimensional gel electrophoresis; format: in vivo, SCID mice; conditions: 1.5 mg/kg IP, 4 hours
Description: SCID mice were implanted with 5×10^6 U87 cells subcutaneously. On day 26, the mice were given 1.5 mg/kg Compound 100 by IP injection. The animals were sacrificed after 4 hours treatment and the subcutaneous mass of tumor cells were removed for 2-dimensional gel electrophoretic analysis. […] In the left panel, TCTP subsequently identified by LC-MS-MS is circled and shown in an enlargement of the gel.
SCID mice were implanted with 5 million U87 cells subcutaneously. On day 26, the mice were administered 1.5 mg/kg of compound 100 by intraperitoneal injection. The animals were sacrificed after 4 hours of treatment and the subcutaneous mass of tumor cells were removed for 2-dimensional gel electrophoretic analysis.

[4] = test system: DAOY medulloblastoma cells; assay: Western blot of DAOY cell lysates for TCTP, p-Plk, total Plk; format: cell-based, human
Description: DAOY cells in culture were exposed to Compound 100 for 4 hours and for 24 hours, and stained for TCTP, p-Plk and total Plk on western blots.
DAOY cells in culture were exposed to compound 100 for 4 hours and for 24 hours, and stained for TCTP, p-plk (phosphorylated plk), and total plk on western blots.

DAOY cells = assay: Immunofluorescence of alpha-tubulin and Plk-1 in DAOY cells; format: cell-based, human; conditions: 5 μM, 4 hours
Description: DAOY cells growing in tissue culture were exposed to 5 μM Compound 100 for 4 hours. The cells were rinsed, fixed, and stained for immunofluorescent recognition of alpha-tubulin and Plk-1. Control cells at the left show in the upper left panel diffuse staining for alpha-tubulin distributed throughout the cytoplasm. […] The lower right panel, stained for Plk-1, alpha-tubulin, and DNA show the almost pure extra nuclear location of homogeneously distributed alpha-tubulin. The right panel consists of 4 elements showing the effects of exposure to Compound 100.

human cancer cell lines = assay: Cancer cell proliferation in cell culture; format: cell-based
U373 cells [5] = assay: Western blots of U373 cells; format: cell-based, human; conditions: U373, 2 nM, 24 hours
Description: (§1) 5×10^6 U87MG cells were inoculated s.c. into each flank of 20 SCID mice. When the xenografts were 0.5+/−0.1 cm (day 0), 5 animals each received i.p. vehicle alone days 1-12 (50% DMSO/H20); compound 102 alone at 1.5 mg/kg days 1-3, 5-7, & 9-11; TMZ alone at 80 mg/kg days 4, 8, 12; or both drugs at the same doses and schedules. If xenografts reached 1800 mm^3, animals were sacrificed. […] B, Survival curve combining the data from the study shown in FIG. 12A, with a second identical study involving a total of 10 animals with two xenografts each. Disease-free survival was defined as no recurrence of either xenografts. […] As in 12A, except that xenografts of SH-SY5Y cells were implanted in one flank only and animals were treated with one additional cycle of drugs, i.e., compound 102 on days 13-15, TMZ, on day 16, and compound 102 plus TMZ on the same schedules. […] E, Western blots of U87 cells in culture 24 hours after exposure to compound 102 at 2.5 uM, TMZ at 25 uM or DOX at 2 uM, and compound 102 plus TMZ or DOX. F, Western blots of U373 cells 24 hours after exposure to compound 102 at 2.5 uM, doxorubicin at 2 uM, and both drugs. G, Western blots of U373 cells 24 hours after exposure to TMZ at 25 uM, okadaic acid at 2 nM, and both drugs.

U87MG xenografts = assay: U87MG s.c. xenografts in SCID mice, compound 102 and TMZ; format: in vivo; conditions: same doses and schedules
Description: as §1
To determine the impact of altering DNA-damage defense mechanisms by inhibiting PP2A on the efficacy of cytotoxic chemotherapy, the effects of compound 102 combined with TMZ, a non-specific DNA-methylating drug, routinely used for the palliative treatment of GBM patients (Prados et al, 2008), were studied. SCID mice bearing s.c. xenografts of either the GBM line U87MG or the neuroblastoma line SH-SY5Y were treated with vehicle alone, compound 102 alone, TMZ alone, or both drugs at the same doses and schedules as when given alone.

U87MG cells = assay: Cellular and molecular changes in U87MG cells (Western blots, IFS); format: cell-based, human; conditions: U87MG, 24 hours; compound 102 2.5 uM, TMZ 25 uM, DOX 2 uM
Description: D, Western blots of U87 lysates: TCTP, pPlk (Tre-210), total Plk, and β-actin. E, IFS of TCTP in U87 cells, F, Western blots p53 (ser-15), pMDM2 (ser-166), and β-actin and G, IFS of p53 (ser-15).
as §1
TCTP is an abundant, highly conserved, multifunctional protein that binds to and stabilizes microtubules before and after mitosis and also exerts potent anti-apoptotic activity (Bommer and Thiele, 2004; Yarm, 2002; Susini et al, 2008) (FIG. 11E).
[…] Akt-1 activation, however, may be anti- or proapoptotic depending on the context of cell signaling (Andrabi et al, 2007).
The effects of compound 102, TMZ, doxorubicin (DOX), a widely used anti-cancer drug that disrupts DNA replication, compound 102 plus TMZ, and compound 102 plus DOX on the amount of pAkt, p53 and MDM2 in U87MG, a cell line with wild-type p53, and in U373, a cell line with mutant p53 (Short et al, 2007) were assessed by Western blots.

U373 cells [6] = assay: Cell cycle distribution of U373 cells by FACS; format: cell-based, human; conditions: U373, 48 hours
Description: Cells in unsynchronized logarithmic growth were exposed to vehicle or drug and adherent cells and cells in the media were collected. Harvested cells were fixed with 70% cold ethanol for 20 min at −20 degrees, washed with PBS, and stained with 10 ug/ml of PI and 1 ug/ml RNAse in TBS for 30 minutes and analyzed by FACS. A, Flow cytometry profiles of U87 cells after exposures to DMSO only, compound 102 only, 5 uM; TMZ only, 25 uM; compound 102 with TMZ combination, doxorubicin only, 2.0 uM and compound 102 with doxorubicin combination. B, Flow cytometry profiles of U373 cells. Exposures as in A, and C, Schema of proposed mechanisms of compound 102 enhancement of cancer chemotherapy.
We analyzed cell cycle patterns of U87MG and U373 cells 48 hours after exposure to TMZ or DOX alone and in combination with compound 102.

**Q.** With CN1CCN(C(=O)C2C(C(=O)O)[C@H]3CC[C@@H]2O3)CC1 (some centres unmarked) [Compound 100] as the compound, how does the “inhibition at 7 days by agent alone” value [1] read?
**A.** The value was 71%.

**Q.** And the “DAOY subcutaneous tumor mass” value [2]?
**A.** The value was “marked regression”.

**Q.** What about the “U87 subcutaneous xenograft growth” value [3] of the same compound?
**A.** The value was “Inhibition”.

**Q.** And the “TCTP concentration in U87 xenografts” value (TCTP)?
**A.** The value was “diminution in TCTP”.

**Q.** And the “Plk-1 phosphorylation (western blot)” value ([4]; 4 hours)?
**A.** The value was “increase”.

**Q.** What about the “TCTP (western blot)” value ([4]; 4 hours) of the same compound?
**A.** The value was “decrease”.

**Q.** What about the “TCTP (western blot)” value ([4]; 24 hours) of the same compound?
**A.** Its value is “no TCTP is detectable”.

**Q.** And the alpha-tubulin distribution (DAOY cells)?
**A.** Its alpha-tubulin distribution is “marked distortion of the homogeneous distribution”.

**Q.** And the “inhibition of human cancer cell lines” value (human cancer cell lines; breast, colon, stomach, liver, ovary, prostate, brain, lung, leukemias, lymphomas)?
**A.** The value was “dose dependent inhibition”.

**Q.** What about the “effect of higher doses on tumor cells” value (human cancer cell lines; higher doses) of the same compound?
**A.** Its value is “mitotic catastrophe and cell death”.

**Q.** What about the “growth of tumor cells at non-inhibitory doses” value (human cancer cell lines; submicromolar to very low micromolar concentrations) of the same compound?
**A.** The value was “slight but clear-cut stimulation”.

**Q.** For C=C1[C@@H](O)[C@@H]2O[C@]3(CC[C@H](/C=C/[C@@H](C)[C@@H]4CC(C)=C[C@@]5(O[C@H](C[C@@](C)(O)C(=O)O)CC[C@H]5O)O4)O3)CC[C@H]2O[C@@H]1[C@@H](O)C[C@H](C)[C@H]1O[C@@]2(CCCCO2)CC[C@H]1C [Okadaic acid, okadaic acid, reference compound], which “effects on pAkt-1 and on mutant p53” value (U373 cells [5]) is on record?
**A.** The value was “mimicked the effects of compound 102”.

**Q.** Which “time of sacrifice (xenografts reached 1800 mm^3)” value (U87MG xenografts) does the source give for Cn1nnc2c(C(N)=O)ncn2c1=O [TMZ, temozolomide, reference compound] here?
**A.** Its value is 7-9 week.

**Q.** Which “inhibition at 7 days by agent alone” value [1] does the source give for N.N.[Cl][Pt][Cl] [cisplatin] here?
**A.** Its value is 93.5% and 93%.

**Q.** How did the MDM2 (U87MG cells) turn out when COc1cccc2c1C(=O)c1c(O)c3c(c(O)c1C2=O)C[C@@](O)(C(=O)CO)C[C@@H]3O[C@H]1C[C@H](N)[C@H](O)[C@H](C)O1 [doxorubicin, reference compound] was run?
**A.** The MDM2 was “little effect”.

**Q.** What about the p53 (U87MG cells) of the same compound?
**A.** Its p53 is “increased”.

**Q.** What about the pAkt-1 (U87MG cells) of the same compound?
**A.** The pAkt-1 was “decreased”.

**Q.** What about the G1 phase cells (U373 cells [6]; compound 102 5 uM, TMZ 25 uM, doxorubicin 2.0 uM) of the same compound?
**A.** Its G1 phase cells is “reduced”.

**Q.** And the G2/M phase cells (U373 cells [6]; same concentrations)?
**A.** Its G2/M phase cells is “reduced”.

**Q.** What about the S phase cells (U373 cells [6]; same concentrations) of the same compound?
**A.** The S phase cells was “greatly increased”.
